{
  "source": "BindingDB's records for patent US20240336642",
  "about": "(The General Hospital, 2024)",
  "data": [
    {"molecular_target": "T1, Polyunsaturated fatty acid lipoxygenase ALOX12/ALOX15 (Homo sapiens, UniProt P16050+P18054)", "T1 sequence (P16050 whole entry)": "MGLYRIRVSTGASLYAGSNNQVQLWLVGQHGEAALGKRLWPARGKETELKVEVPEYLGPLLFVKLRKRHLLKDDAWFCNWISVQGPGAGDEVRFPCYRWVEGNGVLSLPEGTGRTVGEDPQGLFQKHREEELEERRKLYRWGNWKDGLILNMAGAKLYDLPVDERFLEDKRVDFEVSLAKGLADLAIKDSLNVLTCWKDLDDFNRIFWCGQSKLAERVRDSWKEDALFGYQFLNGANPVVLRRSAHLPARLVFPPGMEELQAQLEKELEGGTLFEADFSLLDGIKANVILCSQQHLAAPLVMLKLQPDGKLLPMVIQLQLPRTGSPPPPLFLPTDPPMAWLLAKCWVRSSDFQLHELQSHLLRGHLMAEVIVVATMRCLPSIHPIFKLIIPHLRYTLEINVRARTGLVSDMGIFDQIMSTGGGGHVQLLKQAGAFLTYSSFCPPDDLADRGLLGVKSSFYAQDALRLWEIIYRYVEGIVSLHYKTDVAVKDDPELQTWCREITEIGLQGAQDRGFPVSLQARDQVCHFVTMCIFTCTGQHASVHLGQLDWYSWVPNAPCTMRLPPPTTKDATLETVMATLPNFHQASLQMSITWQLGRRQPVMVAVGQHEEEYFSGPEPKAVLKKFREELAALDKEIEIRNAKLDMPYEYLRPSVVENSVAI", "T1 sequence (P18054 whole entry)": "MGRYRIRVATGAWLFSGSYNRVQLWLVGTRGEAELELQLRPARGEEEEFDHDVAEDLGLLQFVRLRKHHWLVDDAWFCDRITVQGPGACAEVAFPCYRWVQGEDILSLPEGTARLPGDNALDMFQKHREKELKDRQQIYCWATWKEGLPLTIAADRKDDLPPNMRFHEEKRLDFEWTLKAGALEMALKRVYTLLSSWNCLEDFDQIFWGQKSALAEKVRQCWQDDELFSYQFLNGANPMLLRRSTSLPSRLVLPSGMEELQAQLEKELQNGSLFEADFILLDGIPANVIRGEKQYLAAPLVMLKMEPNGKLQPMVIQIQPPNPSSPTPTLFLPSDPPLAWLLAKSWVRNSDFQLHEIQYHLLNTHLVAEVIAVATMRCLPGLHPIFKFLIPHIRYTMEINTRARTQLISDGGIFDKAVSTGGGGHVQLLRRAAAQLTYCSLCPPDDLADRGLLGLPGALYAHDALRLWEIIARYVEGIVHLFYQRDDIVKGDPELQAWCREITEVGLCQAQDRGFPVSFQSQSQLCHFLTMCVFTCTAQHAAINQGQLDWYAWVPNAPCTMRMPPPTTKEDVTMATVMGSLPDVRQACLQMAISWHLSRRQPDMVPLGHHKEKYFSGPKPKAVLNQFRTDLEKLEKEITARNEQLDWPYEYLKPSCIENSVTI", "test": "Biological Activity of Exemplified Compounds as Inhibitors of 12/15-LOX", "units": {"IC50": "nM"}, "values": [
      {"compound": "CNc1oc(-c2cc(Cl)cc(Cl)c2OC(F)F)nc1C#N", "note": "[US20240336642, Compound 4]", "IC50": 97},
      {"compound": "CNc1oc(-c2cc(Cl)cc(OC)c2Cl)nc1C#N", "note": "[US20240336642, Compound 9]", "IC50": 380},
      {"compound": "N#Cc1nc(-c2cc(Cl)cc(Cl)c2F)oc1NCCCCCO", "note": "[US20240336642, Compound 25]", "IC50": "> 20000"}
    ]}
  ]
}
